Assay results taken from BindingDB's records for doi:10.1021/jm0701019 (Abbott Laboratories, 2007).

Target: T1, RAC-alpha serine/threonine-protein kinase [139-480,S378A,S381A,T450D,S473D] (Homo sapiens, UniProt P31749, S378A/S381A/S473D/T450D)
T1 construct: 139-480
Test: Akt Kinase Assay
Description: The kinase assay uses His-Akt1 and a biotinylated peptide as substrate. The biotinylated peptides were immobilized on streptavidin-coated FLASH plates. After reaction, the 33P-phosphopeptide captured on the FLASH plates was measured with a TopCount Packard Instruments […] (Packard Instruments, Boston, MA).

T1 sequence (P31749 139-480 S378A/S381A/T450D/S473D): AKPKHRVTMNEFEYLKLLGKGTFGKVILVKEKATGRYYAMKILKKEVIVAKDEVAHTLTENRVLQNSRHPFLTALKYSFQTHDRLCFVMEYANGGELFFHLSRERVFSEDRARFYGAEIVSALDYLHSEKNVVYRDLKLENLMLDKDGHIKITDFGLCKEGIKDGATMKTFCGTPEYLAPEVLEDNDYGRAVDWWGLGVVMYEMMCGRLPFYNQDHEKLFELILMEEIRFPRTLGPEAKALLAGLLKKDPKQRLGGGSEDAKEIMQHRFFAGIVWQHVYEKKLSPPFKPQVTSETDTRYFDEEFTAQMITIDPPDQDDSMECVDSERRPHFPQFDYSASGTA

Row | Compound | IC50 [nM] | IC50 (pH 7.5, 22 °C) [nM]
1 | N[C@H](COc1cncc(-c2ccc3c(c2)/C(=C/c2ccc[nH]2)C(=O)N3)c1)Cc1ccccc1 [(3Z)-5-{5-[(2S)-2-amino-3-phenylpropoxy]pyridin-3-yl}-3-(1H-pyrrol-2-ylmethylidene)-2,3-dihydro-1H-indol-2-one] | – | 16
2 | Cc1n[nH]c2ccc(-c3cncc(OC[C@@H](N)Cc4cccc(OCCN)c4)c3)cc12 [5-{5-[(2S)-2-amino-3-[3-(2-aminoethoxy)phenyl]propoxy]pyridin-3-yl}-3-methyl-1H-indazole] | 47 | –
3 | Cc1cc(C)c(C[C@H](N)COc2cncc(-c3ccc4[nH]nc(C)c4c3)c2)c(C)c1 [(2S)-1-(2,4,6-trimethylphenyl)-3-{[5-(3-methyl-1H-indazol-5-yl)pyridin-3-yl]oxy}propan-2-amine] | 39 | –
4 | Cc1n[nH]c2ccc(-c3cncc(OC[C@@H](N)Cc4ccc5c(c4)OC(F)(F)C(F)(F)O5)c3)cc12 [5-{5-[(2S)-2-amino-3-(2,2,3,3-tetrafluoro-2,3-dihydro-1,4-benzodioxin-6-yl)propoxy]pyridin-3-yl}-3-methyl-1H-indazole] | 13 | –
5 | Cc1n[nH]c2ccc(-c3cncc(OC[C@@H](N)Cc4cccc(I)c4)c3)cc12 [5-{5-[(2S)-2-amino-3-(3-iodophenyl)propoxy]pyridin-3-yl}-3-methyl-1H-indazole] | 0.9 | –
6 | Cc1n[nH]c2ccc(-c3cncc(OC[C@@H](N)Cc4ccc(F)c(F)c4F)c3)cc12 [5-{5-[(2S)-2-amino-3-(2,3,4-trifluorophenyl)propoxy]pyridin-3-yl}-3-methyl-1H-indazole] | – | 12
7 | Cc1n[nH]c2ccc(-c3cncc(OC[C@@H](N)Cc4cccc(Br)c4)c3)cc12 [(2S)-1-(3-bromophenyl)-3-{[5-(3-methyl-1H-indazol-5-yl)pyridin-3-yl]oxy}propan-2-amine] | 2.1 | –
8 | Cc1n[nH]c2ccc(-c3cncc(OC[C@@H](N)Cc4ccc(Br)cc4F)c3)cc12 [5-{5-[(2S)-2-amino-3-(4-bromo-2-fluorophenyl)propoxy]pyridin-3-yl}-3-methyl-1H-indazole] | 10 | –
9 | Cc1n[nH]c2ccc(-c3cncc(OC[C@@H](N)Cc4ccccc4Cl)c3)cc12 [5-{5-[(2S)-2-amino-3-(2-chlorophenyl)propoxy]pyridin-3-yl}-3-methyl-1H-indazole] | 29 | –
10 | Cc1n[nH]c2cnc(-c3cncc(OC[C@@H](N)Cc4cccc(C(F)(F)F)c4)c3)cc12 [3-[(2S)-2-amino-3-[3-(trifluoromethyl)phenyl]propoxy]-5-{3-methyl-1H-pyrazolo[3,4-c]pyridin-5-yl}pyridine] | 0.6 | –
11 | Cc1cc(F)ccc1C[C@H](N)COc1cncc(-c2ccc3[nH]nc(C)c3c2)c1 [5-{5-[(2S)-2-amino-3-(4-fluoro-2-methylphenyl)propoxy]pyridin-3-yl}-3-methyl-1H-indazole] | 6 | –
12 | Cc1cc(C[C@H](N)COc2cncc(-c3ccc4[nH]nc(C)c4c3)c2)ccc1F [(2S)-1-(3-methyl-4-fluorophenyl)-3-{[5-(3-methyl-1H-indazol-5-yl)pyridin-3-yl]oxy}propan-2-amine] | 11 | –
13 | Cc1ccc(F)cc1C[C@H](N)COc1cncc(-c2ccc3[nH]nc(C)c3c2)c1 [5-{5-[(2S)-2-amino-3-(5-fluoro-2-methylphenyl)propoxy]pyridin-3-yl}-3-methyl-1H-indazole] | 3.9 | –
14 | Cc1n[nH]c2ccc(-c3cncc(OC[C@@H](N)Cc4ccc(F)c(Cl)c4)c3)cc12 [(2S)-1-(3-chloro-4-fluorophenyl)-3-{[5-(3-methyl-1H-indazol-5-yl)pyridin-3-yl]oxy}propan-2-amine] | 3.1 | –
15 | Cc1n[nH]c2ccc(-c3cncc(OC[C@@H](N)Cc4cccc(C(F)(F)F)c4)c3)cc12 [(2S)-1-{[5-(3-methyl-1H-indazol-5-yl)pyridin-3-yl]oxy}-3-[3-(trifluoromethyl)phenyl]propan-2-amine] | 1.2 | –
16 | Cc1n[nH]c2ccc(-c3cncc(OC[C@@H](N)Cc4cccc(OCC5CCN(C)CC5)c4)c3)cc12 [5-{5-[(2S)-2-amino-3-{3-[(1-methylpiperidin-4-yl)methoxy]phenyl}propoxy]pyridin-3-yl}-3-methyl-1H-indazole] | 78 | –
17 | N[C@H](COc1cncc(-c2cc3cn[nH]c3cn2)c1)Cc1cccc(C(F)(F)F)c1 [(2S)-1-{[5-(1H-pyrazolo[3,4-c]pyridin-5-yl)pyridin-3-yl]oxy}-3-[3-(trifluoromethyl)phenyl]propan-2-amine] | 7.2 | –
18 | Cc1n[nH]c2ccc(-c3cncc(OC[C@@H](N)Cc4ccc(Br)c(F)c4)c3)cc12 [5-{5-[(2S)-2-amino-3-(4-bromo-3-fluorophenyl)propoxy]pyridin-3-yl}-3-methyl-1H-indazole] | 1.3 | –
19 | COc1ccc(F)cc1C[C@H](N)COc1cncc(-c2ccc3[nH]nc(C)c3c2)c1 [(2S)-1-(5-fluoro-2-methoxyphenyl)-3-{[5-(3-methyl-1H-indazol-5-yl)pyridin-3-yl]oxy}propan-2-amine] | 7.7 | –
20 | Cc1n[nH]c2ccc(-c3cncc(OC[C@@H](N)Cc4cc(C(F)(F)F)ccc4F)c3)cc12 [5-{5-[(2S)-2-amino-3-[2-fluoro-5-(trifluoromethyl)phenyl]propoxy]pyridin-3-yl}-3-methyl-1H-indazole] | 1.2 | –
21 | Cc1n[nH]c2ccc(-c3cncc(OC[C@@H](N)Cc4ccc(F)c(C(F)(F)F)c4)c3)cc12 [5-{5-[(2S)-2-amino-3-[4-fluoro-3-(trifluoromethyl)phenyl]propoxy]pyridin-3-yl}-3-methyl-1H-indazole] | 1.8 | –
22 | Cc1n[nH]c2ccc(-c3cncc(OC[C@@H](N)Cc4cccc(F)c4F)c3)cc12 [5-{5-[(2S)-2-amino-3-(2,3-difluorophenyl)propoxy]pyridin-3-yl}-3-methyl-1H-indazole] | – | 8.5
23 | Cc1n[nH]c2ccc(-c3cncc(OC[C@@H](N)Cc4cccc(OCCC5CCNCC5)c4)c3)cc12 [5-{5-[(2S)-2-amino-3-{3-[2-(piperidin-4-yl)ethoxy]phenyl}propoxy]pyridin-3-yl}-3-methyl-1H-indazole] | 290 | –
24 | Cc1n[nH]c2ccc(-c3cncc(OC[C@@H](N)Cc4ccc(OC(F)(F)F)cc4)c3)cc12 [(2S)-1-{[5-(3-methyl-1H-indazol-5-yl)pyridin-3-yl]oxy}-3-[4-(trifluoromethoxy)phenyl]propan-2-amine] | 20.3 | –
25 | Cc1n[nH]c2ccc(-c3cncc(OC[C@@H](N)Cc4ccccc4OC(F)(F)F)c3)cc12 [5-{5-[(2S)-2-amino-3-[2-(trifluoromethoxy)phenyl]propoxy]pyridin-3-yl}-3-methyl-1H-indazole] | 15.3 | –
26 | Cc1n[nH]c2ccc(-c3cncc(OC[C@@H](N)Cc4cccc(F)c4)c3)cc12 [5-{5-[(2S)-2-amino-3-(3-fluorophenyl)propoxy]pyridin-3-yl}-3-methyl-1H-indazole] | – | 8.4

The next lines start with the values.

Row | IC50 [nM] | IC50 (pH 7.5, 22 °C) [nM] | Compound
27 | 6.8 | – | Cc1n[nH]c2ccc(-c3cncc(OC[C@@H](N)Cc4cccc(OCC5CCNCC5)c4)c3)cc12 [5-{5-[(2S)-2-amino-3-[3-(piperidin-4-ylmethoxy)phenyl]propoxy]pyridin-3-yl}-3-methyl-1H-indazole]
28 | – | 21 | Cc1n[nH]c2ccc(-c3cncc(OC[C@@H](N)Cc4ccc(F)cc4F)c3)cc12 [(2S)-1-(2,4-difluorophenyl)-3-{[5-(3-methyl-1H-indazol-5-yl)pyridin-3-yl]oxy}propan-2-amine]
29 | 12.1 | – | Cc1n[nH]c2ccc(-c3cncc(OC[C@@H](N)Cc4ccc(C(F)(F)F)cc4F)c3)cc12 [5-{5-[(2S)-2-amino-3-[2-fluoro-4-(trifluoromethyl)phenyl]propoxy]pyridin-3-yl}-3-methyl-1H-indazole]
30 | – | 2650 | N[C@H](COc1cncc(-c2ccc3c(c2)CC(=O)N3)c1)Cc1ccccc1 [5-(5-{[(2S)-2-amino-3-phenylpropyl]oxy}pyridin-3-yl)-1,3-dihydro-2H-indol-2-one]
31 | 5.6 | – | Cc1n[nH]c2ccc(-c3cncc(OC[C@@H](N)Cc4cccc(Cl)c4Cl)c3)cc12 [5-{5-[(2S)-2-amino-3-(2,3-dichlorophenyl)propoxy]pyridin-3-yl}-3-methyl-1H-indazole]
32 | 23 | – | Cc1n[nH]c2ccc(-c3cncc(OC[C@@H](N)Cc4ccccc4Br)c3)cc12 [(2S)-1-(2-bromophenyl)-3-{[5-(3-methyl-1H-indazol-5-yl)pyridin-3-yl]oxy}propan-2-amine]
33 | 2.9 | – | N[C@H](COc1cncc(-c2cc3c(Cl)n[nH]c3cn2)c1)Cc1cccc(C(F)(F)F)c1 [(2S)-1-{[5-(3-chloro-1H-pyrazolo[3,4-c]pyridin-5-yl)pyridin-3-yl]oxy}-3-[3-(trifluoromethyl)phenyl]propan-2-amine]
34 | 3.1 | – | Cc1n[nH]c2ccc(-c3cncc(OC[C@@H](N)Cc4ccc(C(F)(F)F)c(F)c4)c3)cc12 [5-{5-[(2S)-2-amino-3-[3-fluoro-4-(trifluoromethyl)phenyl]propoxy]pyridin-3-yl}-3-methyl-1H-indazole]
35 | 20.7 | – | Cc1n[nH]c2ccc(-c3cncc(OC[C@@H](N)Cc4cc(Cl)cc(Cl)c4)c3)cc12 [(2S)-1-(3,5-dichlorophenyl)-3-{[5-(3-methyl-1H-indazol-5-yl)pyridin-3-yl]oxy}propan-2-amine]
36 | 2.4 | – | Cc1ccc(C[C@H](N)COc2cncc(-c3ccc4[nH]nc(C)c4c3)c2)cc1F [5-{5-[(2S)-2-amino-3-(3-fluoro-4-methylphenyl)propoxy]pyridin-3-yl}-3-methyl-1H-indazole]
37 | 3.6 | – | Cc1n[nH]c2ccc(-c3cncc(OC[C@@H](N)Cc4ccc(Cl)c(F)c4)c3)cc12 [5-{5-[(2S)-2-amino-3-(4-chloro-3-fluorophenyl)propoxy]pyridin-3-yl}-3-methyl-1H-indazole]
38 | – | 65.5 | Cc1n[nH]c2ccc(-c3cncc(OC[C@@H](N)Cc4c(F)cccc4F)c3)cc12 [5-{5-[(2S)-2-amino-3-(2,6-difluorophenyl)propoxy]pyridin-3-yl}-3-methyl-1H-indazole]
39 | 42 | – | Cc1n[nH]c2ccc(-c3cncc(OC[C@@H](N)Cc4ccc5c(c4)OCO5)c3)cc12 [5-{5-[(2S)-2-amino-3-(2H-1,3-benzodioxol-5-yl)propoxy]pyridin-3-yl}-3-methyl-1H-indazole]
